In ChEMBL document CHEMBL1201862, “PubChem BioAssay data set” (2004):
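Where inhibition never reached the appropriate level, the endpoint shown equals the highest concentration tested. Otherwise, values were interpolated linearly from a five-concentration, 48-hour dose response in 96-well plates. Here, GI50 denotes the concentration required for 50% inhibition of growth.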 Calls of active or inactive are those of the source. Rule as the data show it: active = GI50 up to about 1.1 µM and inactive = higher.

Key:
Test in all cases: inhibition of tumour cell growth, NCI panel, 48 h
[1] = test system: 786-0
[2] = test system: A549
[3] = test system: CAKI-1
[4] = test system: CCRF-CEM
[5] = test system: HOP-62
[6] = test system: KM12
[7] = test system: MDA-MB-435
[8] = test system: NCI-H226
[9] = test system: NCI-H522
[10] = test system: OVCAR-3
[11] = test system: OVCAR-4
[12] = test system: OVCAR-5
[13] = test system: RXF 393
[14] = test system: SF-268
[15] = test system: SF-295
[16] = test system: SNB-19
[17] = test system: SR
[18] = test system: U-251
[19] = test system: UACC-257
[20] = test system: UACC-62

Row | Compound | GI50 [1] | GI50 [2] | GI50 [3] | GI50 [4] | GI50 [5] | GI50 [6] | GI50 [7] | GI50 [8] | GI50 [9] | GI50 [10] | GI50 [11] | GI50 [12] | GI50 [13] | GI50 [14] | GI50 [15] | GI50 [16] | GI50 [17] | GI50 [18] | GI50 [19] | GI50 [20]
1 | N=c1c2ccccc2nc2oc3ccc(Cl)cc3n12 | 3.94 µM (inactive) | 12.9 µM (inactive) | 11.9 µM (inactive) | 43.9 µM (inactive) | 5.81 µM (inactive) | > 100 µM (inactive) | 71.3 µM (inactive) | 17.8 µM (inactive) | 17.3 µM (inactive) | 13.9 µM (inactive) | 2.77 µM (inactive) | 19.8 µM (inactive) | 11.9 µM (inactive) | 34.2 µM (inactive) | 12.8 µM (inactive) | 8.22 µM (inactive) | 31.9 µM (inactive) | 5.38 µM (inactive) | > 100 µM (inactive) | 37.7 µM (inactive)
2 | COc1ccc(C(=O)/C=C/c2ccc(OCC(=O)N3CCN(c4ccccc4)CC3)cc2)cc1 | 30.1 µM (inactive) | 51.6 µM (inactive) | 77.8 µM (inactive) | > 35.6 µM (inactive) | 39.1 µM (inactive) | > 76.4 µM (inactive) | > 100 µM (inactive) | > 83 µM (inactive) | 17.7 µM (inactive) | 74.3 µM (inactive) | 46.9 µM (inactive) | > 100 µM (inactive) | 26.1 µM (inactive) | 54 µM (inactive) | 32.6 µM (inactive) | 27.9 µM (inactive) | 18.6 µM (inactive) | 28.4 µM (inactive) | > 100 µM (inactive) | 75.2 µM (inactive)
3 | O=C(N/N=C/c1ccccc1)c1c(F)c(F)c(F)c(F)c1F |  | > 100 µM (inactive) | > 100 µM (inactive) | > 100 µM (inactive) | > 100 µM (inactive) | 86.1 µM (inactive) | 37.8 µM (inactive) | > 100 µM (inactive) | 23.3 µM (inactive) | > 100 µM (inactive) | > 100 µM (inactive) | > 100 µM (inactive) | > 100 µM (inactive) | > 100 µM (inactive) | > 100 µM (inactive) | > 100 µM (inactive) | > 100 µM (inactive) | > 100 µM (inactive) | > 100 µM (inactive) | 33.3 µM (inactive)
4 | O=C(O)CN(CC(=O)O)C(C(=O)O)c1ccccc1 (configuration not stated) | > 100 µM (inactive) | > 100 µM (inactive) | > 100 µM (inactive) | > 100 µM (inactive) | > 100 µM (inactive) | > 100 µM (inactive) | > 100 µM (inactive) | > 100 µM (inactive) | > 100 µM (inactive) | > 100 µM (inactive) | > 100 µM (inactive) | > 100 µM (inactive) | > 100 µM (inactive) | > 100 µM (inactive) | > 100 µM (inactive) | > 100 µM (inactive) | > 100 µM (inactive) | > 100 µM (inactive) | > 100 µM (inactive) | > 100 µM (inactive)
5 | FC(F)(F)c1ccc(Cc2nc3cc4ccccc4cc3[nH]2)cc1 | 89.5 µM (inactive) | > 100 µM (inactive) | 73.3 µM (inactive) | > 100 µM (inactive) | > 100 µM (inactive) | > 100 µM (inactive) | > 100 µM (inactive) | > 100 µM (inactive) | 26.7 µM (inactive) | 57.4 µM (inactive) | 31.5 µM (inactive) | > 100 µM (inactive) | 51.6 µM (inactive) | > 100 µM (inactive) | > 100 µM (inactive) | 45.7 µM (inactive) |  | 71.3 µM (inactive) | > 100 µM (inactive) | > 100 µM (inactive)
6 | CCOC(=O)c1c(C)n(-c2ccc(C)cc2)c(=O)c2ccccc2c(=O)c2c(=O)ccc(=O)c1=2 | 31 µM (inactive) | 20.2 µM (inactive) | 14.5 µM (inactive) | 6.34 µM (inactive) | 18.8 µM (inactive) | 13.6 µM (inactive) | 15.3 µM (inactive) | 18.2 µM (inactive) | 18.3 µM (inactive) | 16.2 µM (inactive) | 21.4 µM (inactive) | 28.6 µM (inactive) | 17.4 µM (inactive) | 19.8 µM (inactive) |  | 32.2 µM (inactive) |  | 19.4 µM (inactive) | 18.5 µM (inactive) | 19.6 µM (inactive)
7 | N#CCc1c(F)c(F)c(F)c(F)c1F | > 100 µM (inactive) | > 100 µM (inactive) | > 100 µM (inactive) | > 100 µM (inactive) | > 100 µM (inactive) | > 100 µM (inactive) | > 100 µM (inactive) | > 100 µM (inactive) | > 100 µM (inactive) |  |  | > 100 µM (inactive) | > 100 µM (inactive) | > 100 µM (inactive) | > 100 µM (inactive) | > 100 µM (inactive) | > 100 µM (inactive) | > 100 µM (inactive) | > 100 µM (inactive) | > 100 µM (inactive)
8 | O=C1Cc2cn[nH]c2-c2ccccc2N1 | 41.8 µM (inactive) | 38 µM (inactive) |  | 20.7 µM (inactive) | 32.1 µM (inactive) | 33.2 µM (inactive) | 22.3 µM (inactive) | > 75.9 µM (inactive) | 21.4 µM (inactive) | 16.1 µM (inactive) | 30.3 µM (inactive) | 30.3 µM (inactive) | 28.2 µM (inactive) | 41.1 µM (inactive) | 61 µM (inactive) | > 68.2 µM (inactive) | 21.7 µM (inactive) | 23.6 µM (inactive) | 23.5 µM (inactive) | 22.9 µM (inactive)
9 | COc1ccc(-c2c3c(nc4nc(SCCc5ccccc5)nc(N)c24)CCCC3)cc1OC |  | > 100 µM (inactive) | > 100 µM (inactive) | > 100 µM (inactive) | 90.8 µM (inactive) | > 100 µM (inactive) | > 100 µM (inactive) |  |  | > 100 µM (inactive) | 75.7 µM (inactive) | > 100 µM (inactive) | 24.9 µM (inactive) | > 100 µM (inactive) | 22.7 µM (inactive) | > 100 µM (inactive) | > 100 µM (inactive) | > 100 µM (inactive) | > 100 µM (inactive) | > 100 µM (inactive)
10 | COC(=O)/C=C\C(C#N)(C#N)/N=C/c1cccs1 | 14.2 µM (inactive) | 22.6 µM (inactive) | 1.88 µM (inactive) | 0.533 µM (active) | 17.6 µM (inactive) | 17.2 µM (inactive) | 5.16 µM (inactive) | 7.53 µM (inactive) | 0.783 µM (active) | 11.1 µM (inactive) | 5.82 µM (inactive) | 5.92 µM (inactive) | 2.51 µM (inactive) | 15 µM (inactive) | 18.8 µM (inactive) | 30.8 µM (inactive) |  | 16.6 µM (inactive) | 14.4 µM (inactive) | 11.6 µM (inactive)
11 | COC(=O)c1ccc(CN2CCc3c([nH]c4ccccc34)C2CO)o1 (configuration not stated) | > 10 µM (inactive) | > 10 µM (inactive) | > 10 µM (inactive) | > 10 µM (inactive) | > 10 µM (inactive) | > 10 µM (inactive) | > 10 µM (inactive) |  | > 10 µM (inactive) | > 10 µM (inactive) | > 10 µM (inactive) |  | > 10 µM (inactive) | > 10 µM (inactive) | > 10 µM (inactive) |  | > 10 µM (inactive) |  | > 10 µM (inactive) | > 10 µM (inactive)
12 | COc1ccc(/N=C(\C)c2ccncc2)cc1 | > 100 µM (inactive) | 47.2 µM (inactive) | > 100 µM (inactive) | > 100 µM (inactive) | > 100 µM (inactive) | > 100 µM (inactive) | 26.9 µM (inactive) | 93.3 µM (inactive) | > 100 µM (inactive) | > 100 µM (inactive) | > 100 µM (inactive) | 72.8 µM (inactive) | > 100 µM (inactive) | 50.6 µM (inactive) | > 100 µM (inactive) | > 100 µM (inactive) |  | > 100 µM (inactive) | > 100 µM (inactive) | > 100 µM (inactive)
13 | CC[C@]12C=CCN3CC[C@@]4(c5cc(Br)c(OC)c([N+](=O)[O-])c5N(C)[C@H]4[C@@](O)(C(=O)OC)[C@@H]1OC(C)=O)[C@@H]32 | 94.6 µM (inactive) | 39.8 µM (inactive) | 40.3 µM (inactive) | 24.7 µM (inactive) | 87.5 µM (inactive) | 47.6 µM (inactive) | 35.1 µM (inactive) | 21.8 µM (inactive) |  | 34.4 µM (inactive) | 52.8 µM (inactive) | > 100 µM (inactive) | 98.2 µM (inactive) | 30.1 µM (inactive) | 37 µM (inactive) | 71.9 µM (inactive) | 25.7 µM (inactive) | 43.4 µM (inactive) | 33.3 µM (inactive) | > 100 µM (inactive)
14 | CCN(CCCl)c1cc(CN(C)C)cc(NC(=O)c2ccc(C(=O)Nc3cccc(N(CCCl)NN)c3)cc2)c1 | < 0.01 µM (active) | 0.0209 µM (active) | 0.0168 µM (active) | < 0.01 µM (active) | 0.0453 µM (active) | 0.123 µM (active) | 0.016 µM (active) | 0.145 µM (active) | < 0.01 µM (active) |  | 0.0136 µM (active) | 0.182 µM (active) | 0.0285 µM (active) | 0.0129 µM (active) | 0.0428 µM (active) | < 0.01 µM (active) | < 0.01 µM (active) | 0.0101 µM (active) | 0.174 µM (active) | < 0.01 µM (active)
15 | COc1ccc(C(=CCC(C)C2CCC3[C@@H]4C(OC(C)=O)CC5CC(OC(C)=O)CC[C@]5(C)C4CC(OC(C)=O)[C@]23C)c2ccc(OC)cc2)cc1 (some centres not stated) | > 100 µM (inactive) | > 100 µM (inactive) |  | 27.1 µM (inactive) | > 100 µM (inactive) | 76.6 µM (inactive) | 77.1 µM (inactive) |  | 23.8 µM (inactive) |  | 19.1 µM (inactive) | 72.8 µM (inactive) |  | > 100 µM (inactive) | > 100 µM (inactive) | > 100 µM (inactive) | 19.5 µM (inactive) | > 100 µM (inactive) | 99.5 µM (inactive) | 
